Reference: PMC7214099 (Cell reports, 2020)

System: IAV PA 1–192 aa endonuclease
Format: binding

With O=C1c2c(O)c(=O)ccn2N([C@@H]2c3ccccc3SCc3c2ccc(F)c3F)[C@@H]2COCCN12 [BXA, Baloxavir acid] the “increase in thermostability of IAV endonuclease” value was 28.1 °C.
